Each structure is given as a SMILES string.

Test [1] has as its system autophagosome marker LC3 (LC3 II/LC3 I) in transformed BJ cells. Kind of test: Immunoblot analysis of autophagosome marker LC3 (lysosome function), derivatives of Compound 1. The conditions noted are these: Homo sapiens, band intensities LC3 II/LC3 I vs DMSO control, 24 h. The class given is cell-based. As to the method:
(§1) FIG. 4 compares the ability of Compound 1 (a131), and various derivatives thereof (referred to using their code numbers for brevity; the designated chemical compound for each code number is provided in the chemical examples section below), to inhibit autophagy and/or mitosis. BJ transformed cells were treated with 5 μM of various Compounds as shown, for 24 h. Cells were harvested and total lysates were analysed by detecting the mitotic marker phospho-histone H3 at serine 10 (pH3 (Ser10)) and the autophagosome marker LC3. Antibodies raised against β-actin were used as an internal loading control.
(§2) The ability of Compound 1 to inhibit lysosome function was examined using immunoblotting. HeLa cervical cancer cells were cultured in Dulbecco's modified Eagle's medium (DMEM) supplemented with 10% Fetal Bovine Serum (FBS, Thermo Scientific). The HeLa cells were treated with different concentrations of Compound 1 (0.625, 1.25, 2.5, 5 and 10 μM, dimethyl sulfoxide (DMSO, Kanto Kagaku)), chloroquine (CQ) (1.25, 2.5, 10, 50 and 100 μM, DMSO) or DMSO for 6 h. Then, the treated cells were harvested and lysed in 1% triton lysis buffer [25 mM Tris HCl (pH8.0), 150 mM NaCl, 1% triton-X100, 1 mM dithiothreitol (DTT), protease inhibitor mix (Complete Mini, Roche) and phosphatase inhibitor (PhosphoStop, Roche)]. The proteins in total lysates were boiled with sample buffer (60 mM Tris-HCl (pH 6.8), 25% glycerol, 2% SDS, 14.4 mM 2-mercaptoethanol, 0.1% bromophenol blue) and resolved by 14% tris-glycine sodium dodecyl sulfate polyacrylamide gel electrophoresis (SDS-PAGE) and subjected to immunoblot analysis.
(§3) Defects in lysosome function and inhibition of autophagy can be measured by accumulation of LC3-phosphatidylethanolamine conjugated non-soluble form (LC3-II), which are converted from soluble LC3-I. Thus, antibodies raised against LC3 (Cell Signaling, Cat#4108) were used to determine lysosomal function and integrity. Antibodies raised against phosphorylated histone H3 at serine 10 residue (pH3) (Cell signaling, Cat#3377) were used as the marker for mitotic dysfunction and arrest. Antibodies raised against β-actin (Millipore, Cat#MAB1501) were used as an internal loading control. The inhibitory ability of Compound 1 was also quantitatively compared to CQ.
(§4) Derivatives of Compound 1 were tested to see if they had similar dual activity, or presented only one of the activities of Compound 1. The protocol for immunoblot analysis described in Biology Example 1 was applied to the additional indicated compounds.
(§5) Activities of compounds were determined by two independent experiments. First, Compounds were classified according to the intensity of increase in each of the mitotic marker phospho-histone H3 at serine 10 (pH3 (Ser 10)) and the autophagosome marker LC3, respectively, at 1.25 μM, when compared with 1.25 μM Compound 1 (a131).
(§6) Compounds classified “++” on either “mitosis” or “inhibits lysosome” show similar increase in each of the mitotic marker phospho-histone H3 at serine 10 (pH3 (Ser10)) and the autophagosome marker LC3, respectively, at 2.5 μM, when compared with 1.25 μM Compound 1 (a131); and compounds classified “+” on either “mitosis” or “inhibits lysosome” show similar increase in each of the mitotic marker phospho-histone H3 at serine 10 (pH3 (Ser10)) and the autophagosome marker LC3, respectively, at a concentration range of 5-10 μM, when compared with 1.25 μM Compound 1 (a131).
Compounds classified “+/−” on either “mitosis” or “inhibits lysosome” show less increase in each of the mitotic marker phospho-histone H3 at serine 10 (pH3 (Ser10)) and the autophagosome marker LC3, respectively, at a concentration range of 5-10 μM, when compared with 1.25 μM Compound 1 (a131). […]
A general note: In western blotting, separated proteins are transferred to a membrane and probed.

In test [2] the test system is pH3 (Ser10) and LC3 in BJ transformed cells. Kind of test: Immunoblot classification of compounds by pH3 and LC3 (FIG. 4). The settings on record: 5 μM, 24 h. Type of test: cell-based, human. As to the method:
as §1, §4

Test [3] has as its system non-transformed normal BJ cells. In words: BrdU incorporation and FACS analysis (cell cycle arrest). The class given is cell-based, human. The settings on record: 24 h; 2.5 and 5 μM (FIG. 9A, 9C). How it is done:
A: is output from a FACS analysis of isogenic-non-transformed, without (panels a-c) (WT) or with (panels d-f) shRNA-mediated knockdown of p53 (p53KD), and oncogene-transformed BJ cells (panels g-i), each treated with 0, 5 or 2.5 μM Compound 1 (a131) for 24 h. Cells were doubly stained with PI (horizontal axis) and BrdU (vertical axis). The BrdU-positive population in panels a-c are indicated as arrows. B: is a diagrammatic representation of an immunoblot analysis showing isogenic non-transformed (normal) and oncogene-transformed BJ cells (transformed) treated with Compound 1 (a131) at 0, 2.5 or 5 μM for 24 h or 48 h. Cells were harvested and total lysates were analysed by detecting p53 and p21. Antibodies raised against β-actin were used as an internal loading control. C and D are histograms showing the percentage of bromodeoxyuracil (BrdU)-positive non-transformed (normal) BJ cells. C: Cells were treated with Group 1 Compound 1 (a131) at 2.5 and 5 μM, Compound 23 (b36) at 2.5 and 5 μM, and Compound 21 (b35) at 5 μM, and Group 2 Compound 25 (a166) at 2.5 and 5 μM, for 24 h. Cells were doubly stained with propidium iodide (PI) and BrdU, and subjected to FACS analysis. The BrdU-positive population are plotted as bars. D: Cells were treated with Group 1 Compound 1 (a131), Compound 16 (b5), and Compound 17 (b9); Group 2 Compound 13 (b12), Compound 12 (b16) and Compound 25 (a166), and Group 3 Compound 3 (a159) at 5 μM for 48 h. The percentage of cells with BrdU positive population, in comparison with DMSO control vehicle, is shown with mean values±S.D. (n=3).
Isogenic non-transformed and oncogene-transformed BJ cells (cultured as in Biology Example 3) were treated with Compound 1 at final concentrations of 2.5 and 5 μM for 24 h. The treated cells were then treated with 30 μM final concentration of 5-bromo-2′-deoxyuridine (BrdU, SIGMA) for 1 h to detect DNA synthesis as a marker for cell proliferation. Subsequently, the cells were fixed in EtOH at 4° C. overnight and permeabilized with 2N HCl/0.5% Triton X-100 for 30 min. The cells were then treated with 0.1M sodium tetraborate for 2 min and stained with anti-BrdU antibody (Invitrogen, Cat#B35129) for 60 min, followed by a 30 min treatment with 20 μg/mL of propidium iodide (PI) and 10 μg/mL RNaseA.
Furthermore, the abilities of additional five (5) Compounds to arrest cells at the stage of G1/S phase of the cell cycle were evaluated. […] The abilities of these Compounds to arrest cells at the stage of G1/S phase of the cell cycle were then measured by using BrdU incorporation assay and FACS analysis. The percentage of cells with BrdU positive population in comparison with DMSO control vehicle was determined and plotted with mean values±S.D. (n=3).
For orientation: Dividing cells build labelled thymidine or BrdU into new DNA.

Test [4] concerns mitotic marker phospho-histone H3 at serine 10 (pH3 (Ser10)) in transformed BJ cells. Kind of test: Immunoblot analysis of mitotic marker pH3 (Ser10), derivatives of Compound 1. The conditions noted are these: Homo sapiens, band intensities pH3(Ser10)/β-actin vs DMSO control, 24 h. The class given is cell-based. As to the method:
as §1, §2, §3, §4, §5, §6
Compounds classified “+/−” on either “mitosis” or “inhibits lysosome” show less increase in each of the mitotic marker phospho-histone H3 at serine 10 (pH3 (Ser10)) and the autophagosome marker LC3, respectively, at a concentration range of 5-10 μM, when compared with 1.25 μM Compound 1 (a131).
Next, the ability of Compound 1 and its derivatives to induce mitotic arrest in transformed BJ cells was quantified as the fold induction of band intensities [pH3(Ser10)/β-actin] in comparison with DMSO control. […]

As a reminder, the fold induction is the signal under treatment as a multiple of the control signal. Low readings indicate a weak induction, high ones a strong induction. Take `N#C/C(=C\c1cccc2cnccc12)c1cn(C(=O)C2CCNCC2)c2ccccc12` [Compound 21, (Z)-3-(isoquinolin-5-yl)-2-(1-(piperidine-4-carbonyl)-1H-indol-3-yl)acrylonitrile]: the fold induction at 5 µM in test [1] came out at 7.3; in test [4], 10.1. In addition, the “Inhibition of lysosome function and/or mitosis (FIG. 4)” value (from here on “Inhibition”) in test [2] was “exhibit the dual properties of inhibiting both lysosome function and mitosis”. In addition, the BrdU-positive cell population result in test [3] was “substantially decreased the population of BrdU-positive cells”.

For `COCCOCC(=O)n1cc(/C(C#N)=C/c2cccc3cnccc23)c2ccccc21` [Compound 30, (Z)-2-(1-(2-(2-methoxyethoxy)acetyl)-1H-indol-3-yl)-3-(isoquinolin-5-yl)acrylonitrile], the fold induction at 5 µM in test [1] came out at 4.1; in test [4] it was 12.8. In addition, the “Inhibition” value in test [2] was “exhibit the dual properties of inhibiting both lysosome function and mitosis”.

As to `N#C/C(=C\c1cccc2cnccc12)c1cn(C(=O)CCN)c2ccccc12` [Compound 22, (Z)-2-(1-(3-aminopropanoyl)-1H-indol-3-yl)-3-(isoquinolin-5-yl)acrylonitrile], the fold induction at 5 µM in test [1] was determined as 4.1; in test [4], 2.1. Moreover, in test [2], the “Inhibition” value was “exhibit the dual properties of inhibiting both lysosome function and mitosis”.

Regarding `COc1ccc2[nH]cc(/C(C#N)=C/c3cccc4cnccc34)c2c1` [Compound 2, (Z)-3-(isoquinolin-5-yl)-2-(5-methoxy-1H-indol-3-yl)acrylonitrile], the fold induction at 5 µM in test [1] came to 3.2; in test [4], 3. Further, the “Inhibition” value in test [2] was “exhibit the dual properties of inhibiting both lysosome function and mitosis”.

Take `N#C/C(=C\c1cccc2cnccc12)c1c[nH]c2ccc(Br)cc12` [Compound 8, (Z)-2-(5-bromo-1H-indol-3-yl)-3-(isoquinolin-5-yl)acrylonitrile]: the results for the fold induction at 5 µM in test [1] and in test [4] were 4 and 2.1, respectively. Moreover, the “Inhibition” value in test [2] is “exhibit the dual properties of inhibiting both lysosome function and mitosis”.

In the case of `N#C/C(=C\c1cccc2cnccc12)c1c[nH]c2ccc(CN3CCCC3)cc12` [Compound 32, (Z)-3-(isoquinolin-5-yl)-2-(5-((pyrrolidin-1-yl)methyl)-1H-indol-3-yl)acrylonitrile], the fold induction at 5 µM in test [1] turned out to be 3.3; in test [4], 1. Further, the “Inhibition” value in test [2] is “inhibit lysosome function only”.

As to `N#C/C(=C\c1cccc2cnccc12)c1cn(C(=O)CCNC(=O)CCCC[C@@H]2SC[C@@H]3NC(=O)N[C@@H]32)c2ccccc12` [Compound 24, N-(3-(3-((Z)-1-cyano-2-(isoquinolin-5-yl)vinyl)-1H-indol-1-yl)-3-oxopropyl)-5-((3aS,4S,6aR)-2-oxohexahydro-1H-thieno[3,4-d]imidazol-4-yl)pentanamide], the fold induction at 5 µM came to 3.3 in test [1] and 3.2 in test [4]. Further, the “Inhibition” value in test [2] is “exhibit the dual properties of inhibiting both lysosome function and mitosis”.

With `CC(C)(C)OC(=O)NCCC(=O)n1cc(/C(C#N)=C/c2cccc3cnccc23)c2ccccc21` [Compound 20, (Z)-tert-butyl (3-(3-(1-cyano-2-(isoquinolin-5-yl)vinyl)-1H-indol-1-yl)-3-oxopropyl)carbamate], the fold induction at 5 µM turned out to be 3.9 in test [1] and 4.8 in test [4]. The “Inhibition” value in test [2] was “exhibit the dual properties of inhibiting both lysosome function and mitosis”.

As to `N#C/C(=C\c1cccc2cnccc12)c1c[nH]c2cc(CN3CCCC3)ccc12` [Compound 31, (Z)-3-(isoquinolin-5-yl)-2-(6-((pyrrolidin-1-yl)methyl)-1H-indol-3-yl)acrylonitrile], the results for the fold induction at 5 µM in test [1] and in test [4] were 5.7 and 1.1, respectively. In addition, the “Inhibition” value in test [2] is given as “inhibit lysosome function only”.

Consider `N#C/C(=C\c1cccc2cnccc12)c1cn(C(=O)C2CCN(C(=O)CCCC[C@@H]3SC[C@@H]4NC(=O)N[C@@H]43)CC2)c2ccccc12` [Compound 23, (Z)-3-(isoquinolin-5-yl)-2-(1-(1-(5-((3aS,4S,6aR)-2-oxohexahydro-1H-thieno[3,4-d]imidazol-4-yl)pentanoyl)piperidine-4-carbonyl)-1H-indol-3-yl)acrylonitrile], for which the figures for the fold induction at 5 µM in test [1] and in test [4] were 5.7 and 18.6, respectively. For the same compound, the “Inhibition” value in test [2] was “exhibit the dual properties of inhibiting both lysosome function and mitosis”. Moreover, the BrdU-positive cell population entry in test [3] is on record as “substantially decreased the population of BrdU-positive cells”.

These data come from patent publication US10308631B2, “Selective anti-cancer compounds” (NATIONAL UNIVERSITY OF SINGAPORE, priority 2015, dated 2019).
